According to patent publication US4202824A, “Physiologically active derivatives of esterastin” (Zaidan Hojin Biseibutsu Kagaku Kenkyu Kai, priority 1978, dated 1980):
≈ marks a conversion by molar mass, not a printed value.

Legend:
[1] = system: esterase of pig pancrease; details: cited from earlier work
pig pancreas esterase = experiment: esterase-inhibiting activity, crude pig pancreas lipase preparation with p-nitrophenyl acetate as substrate; type: biochemical; details: for ID50, dose giving 50% inhibition to esterase: p-nitrophenyl acetate substrate, pH 7.0, 20° C., 30 minutes, pure products; for IC50: pig pancreas esterase, p-nitrophenyl acetate as the substrate, read-out: level giving 50% inhibition of the esterase
Procedure: Thus, a commercially available, crude lipase preparation obtained from pig pancreas is dissolved to a concentration of 0.5% (by weight) in a 0.05M phosphate buffered solution (pH 7.0) containing 0.2% "Triton X-100" (a trade name of an emulsifier consisting of a polyethyleneglycol alkylphenylether, a product of Rohm & Haas Co., U.S.A.). This lipase solution (0.03 ml), 2.92 ml of 0.05 M phosphate buffered solution (pH 7.0) and 0.025 ml of a solution containing a sample of the new compound to be assayed are mixed together, and the resulting mixture (2.975 ml) is warmed at 20° C. for 3 minutes and then admixed with 0.025 ml of a solution containing 10 mg/ml of p-nitrophenyl acetate in methanol to start the reaction of p-nitrophenyl acetate with lipase. After the enzymatic reaction is effected at 20° C. for 30 minutes, absorbance (a) at 400 nm of the resulting reaction solution is measured. On the other hand, absorbance (b) at 400 nm of a control reaction solution obtained from the blank test using the 0.05M phosphate buffered solution not containing the new compound to be assayed is measured in the same way as above. Degree (%) of inhibition to esterase is calculated according to the following equation: [formula]

cholesterol esterase = cholesterol esterase inhibition, cholesterol acetate as substrate, liberated cholesterol determined; type: biochemical; details: 37° C., 3 minutes; for cholesterol esterase-inhibiting activity relative to the parent esterastin: printed as 3-fold and 20 times higher
Excerpt: Furthermore, the new compounds of this invention all have advantageously a remarkably higher activity of inhibiting cholesterol esterase than the parent esterastin.

storage stability = type: physicochemical
Excerpt: In contrast, the new compound, tetrahydroesterastin is fairly stable so that it can be stored in the form of a powder as such for a long time of 1 year or more without lowering its activity.

[2] = system: cells forming humoral antibody; details: background statement; cited from earlier work
cell-mediated immunity = details: background statement; cited from earlier work
[3] = system: inflammation caused by carrageenin; details: background statement; cited from earlier work

| SMILES | ID50, dose giving 50% inhibition to esterase (pig pancreas esterase) | IC50 (pig pancreas esterase) | cholesterol esterase-inhibiting activity relative to the parent esterastin (cholesterol esterase) | stability on storage (in words) (storage stability) | other results |
| --- | --- | --- | --- | --- | --- |
| CCOP(=O)(OCC)Oc1ccc([N+](=O)[O-])cc1 [paradoxon] |  |  |  |  | inhibition of the esterase of pig pancreas (in words) [1]: inhibit the esterase |
| CCCCCC=CCC=CCC(O)CC1OC(=O)C1CCCCCC (centres unmarked) [3,5-di-hydroxy-2-hexylhexadeca-7,10-dienoic 1,3-lactone] | 7 ng/mL (≈ 0.02 µM) | 20 nM | about 20 fold |  | cholesterol esterase-inhibiting activity relative to tetrahydroesterastin (cholesterol esterase): about 7 times |
| CCCCCCCCCCCC(CC1OC(=O)C1CCCCCC)OC(=O)C(CC(N)=O)NC(C)=O (centres unmarked) [tetrahydroesterastin] | 3.3 ng/mL (≈ 0.00646 µM) | 6.4 nM | about 3 fold | fairly stable | storage time as powder without lowering its activity (storage stability; stored in the form of a powder as such): ≥ 1 year |
| CCCCCC=CCC=CCC(CC1OC(=O)C1CCCCCC)OC(=O)C(CC(N)=O)NC(C)=O (centres unmarked) [esterastin] | 0.2 ng/mL (≈ 0.000395 µM) |  |  | fairly unstable | effect on number of cells forming humoral antibody [2]: reduce the number of the cells forming humoral antibody; effect on cell-mediated immunity (cell-mediated immunity): suppress the cell-mediated immunity; effect on inflammation caused by carrageenin [3]: inhibits the inflammation caused by carrageenin |
| CCCCCCCCCCCC(O)CC1OC(=O)C1CCCCCC (centres unmarked) [3,5-di-hydroxy-2-hexylhexadecanoic 1,3-lactone] | 9 ng/mL (≈ 0.0254 µM) | 25 nM |  |  |  |
